16 molecules from ChEMBL document CHEMBL1154943, “Exploration of SAR features by modifications of thiazoleacetic acids as CRTH2 antagonists” (Bioorg Med Chem Lett, 2010) can be followed below.

For assay [1], the target named is T1, Prostaglandin D2 receptor 2 (Homo sapiens, UniProt Q9Y5Y4).
T1 sequence (Q9Y5Y4 whole entry): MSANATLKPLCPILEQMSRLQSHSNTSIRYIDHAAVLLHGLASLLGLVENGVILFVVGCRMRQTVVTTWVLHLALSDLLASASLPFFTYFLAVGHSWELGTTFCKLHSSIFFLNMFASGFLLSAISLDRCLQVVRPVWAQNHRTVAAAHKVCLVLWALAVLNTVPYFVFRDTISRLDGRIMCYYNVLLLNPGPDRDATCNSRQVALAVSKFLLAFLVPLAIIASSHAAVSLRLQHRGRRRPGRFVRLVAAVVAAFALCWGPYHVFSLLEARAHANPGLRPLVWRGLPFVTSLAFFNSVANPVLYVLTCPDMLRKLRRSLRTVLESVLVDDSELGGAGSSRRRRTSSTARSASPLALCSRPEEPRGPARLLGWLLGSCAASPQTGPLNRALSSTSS
Nature of the assay: Antagonist activity at human CRTH2 receptor expressed in HEK385-7 cells assessed as inhibition of PGD2-mediated beta-arrestin translocation preincubated 5 mins prior to PGD2 challenge measured after 5 mins by BRET assay. The format is functional, cell-based. On the technique in general: In BRET a luciferase serves as donor, and the signal depends on an acceptor being close.

For assay [2], the target named is T1, Prostaglandin D2 receptor 2. The assay is described as follows: Displacement of [3H]PGD2 from human CRTH2 receptor expressed in HEK385-7 cells. The format is cell-based. (In a radioligand displacement assay an active substance lowers the binding of a labelled ligand.)
For assay [3], the target named is T2, Prostaglandin D2 receptor 2 (Homo sapiens) (UniProt Q9Y5Y4).
T2 sequence (whole entry): T1 sequence (Q9Y5Y4 whole entry)
Nature of the assay: Antagonist activity at human CRTH2 receptor expressed in HEK385-7 cells assessed as inhibition of PGD2-mediated beta-arrestin translocation preincubated 5 mins prior to PGD2 challenge measured after 5 mins by BRET assay relative to control. The assay is classed as functional, cell-based.

Assay [4] has as its target T3, Prostaglandin D2 receptor 2 (Mus musculus, UniProt Q9Z2J6).
T3 sequence (Q9Z2J6 whole entry): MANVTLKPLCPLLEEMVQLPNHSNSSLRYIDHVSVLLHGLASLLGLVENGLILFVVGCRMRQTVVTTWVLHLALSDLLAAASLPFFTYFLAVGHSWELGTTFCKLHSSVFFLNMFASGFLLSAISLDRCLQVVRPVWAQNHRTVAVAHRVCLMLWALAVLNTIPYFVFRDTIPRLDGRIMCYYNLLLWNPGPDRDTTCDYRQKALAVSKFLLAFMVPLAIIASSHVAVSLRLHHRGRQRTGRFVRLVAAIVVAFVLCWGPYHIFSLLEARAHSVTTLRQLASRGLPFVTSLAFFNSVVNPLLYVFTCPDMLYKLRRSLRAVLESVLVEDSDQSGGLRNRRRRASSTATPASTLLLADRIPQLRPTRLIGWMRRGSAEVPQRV
The assay is described as follows: Inhibition of mouse CRTH2 receptor.

A short description of assay [5]: Inhibition of guinea pig DP receptor. More on the design: species or system Cavia porcellus.
The target of assay [6] is T4, Prostaglandin D2 receptor (Homo sapiens, UniProt Q13258).
T4 sequence (Q13258 whole entry): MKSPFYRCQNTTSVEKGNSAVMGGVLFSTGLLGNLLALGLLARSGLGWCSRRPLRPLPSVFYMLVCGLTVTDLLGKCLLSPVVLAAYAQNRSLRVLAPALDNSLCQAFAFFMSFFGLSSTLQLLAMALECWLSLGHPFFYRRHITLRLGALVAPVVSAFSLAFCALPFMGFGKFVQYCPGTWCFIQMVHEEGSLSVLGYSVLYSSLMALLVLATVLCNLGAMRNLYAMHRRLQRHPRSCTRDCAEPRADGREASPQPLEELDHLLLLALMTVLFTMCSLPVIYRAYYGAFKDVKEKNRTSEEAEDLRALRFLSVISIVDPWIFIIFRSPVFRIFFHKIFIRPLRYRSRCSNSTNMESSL
The assay is described as follows: Inhibition of human DP receptor.

For assay [7], the target named is T5, Prostaglandin D2 receptor 2 (Rattus norvegicus, UniProt Q6XKD3).
T5 sequence (Q6XKD3 whole entry): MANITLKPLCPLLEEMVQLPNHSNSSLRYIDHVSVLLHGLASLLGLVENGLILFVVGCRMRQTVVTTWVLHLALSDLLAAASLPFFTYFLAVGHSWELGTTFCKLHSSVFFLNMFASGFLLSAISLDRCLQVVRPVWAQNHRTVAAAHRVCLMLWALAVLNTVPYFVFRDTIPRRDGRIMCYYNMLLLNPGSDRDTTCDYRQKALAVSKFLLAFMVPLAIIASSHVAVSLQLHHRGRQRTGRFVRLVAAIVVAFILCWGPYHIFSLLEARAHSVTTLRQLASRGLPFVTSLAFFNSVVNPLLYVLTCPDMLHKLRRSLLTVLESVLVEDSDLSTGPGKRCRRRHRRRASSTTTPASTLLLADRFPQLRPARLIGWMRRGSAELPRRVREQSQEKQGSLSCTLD
The assay is described as follows: Inhibition of rat CRTH2 receptor.

The target of assay [8] is T6, Prostaglandin D2 receptor (Mus musculus, UniProt P70263).
T6 sequence (P70263 whole entry): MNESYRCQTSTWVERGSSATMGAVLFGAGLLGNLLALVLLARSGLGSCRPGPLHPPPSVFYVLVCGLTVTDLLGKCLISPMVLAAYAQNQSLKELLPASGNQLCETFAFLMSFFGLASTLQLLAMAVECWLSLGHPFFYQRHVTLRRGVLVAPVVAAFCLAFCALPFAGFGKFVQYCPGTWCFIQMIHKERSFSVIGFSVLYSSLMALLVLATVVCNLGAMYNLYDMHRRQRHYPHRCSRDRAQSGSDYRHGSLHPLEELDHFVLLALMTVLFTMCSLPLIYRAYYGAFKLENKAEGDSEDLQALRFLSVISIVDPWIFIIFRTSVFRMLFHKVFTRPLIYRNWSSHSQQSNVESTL
The assay is described as follows: Inhibition of mouse DP receptor.

Assay [9] addresses T7, Chemoattractant receptor-homologous molecule expressed on Th2 cells (Cavia porcellus, UniProt Q56D28).
T7 sequence (Q56D28 whole entry): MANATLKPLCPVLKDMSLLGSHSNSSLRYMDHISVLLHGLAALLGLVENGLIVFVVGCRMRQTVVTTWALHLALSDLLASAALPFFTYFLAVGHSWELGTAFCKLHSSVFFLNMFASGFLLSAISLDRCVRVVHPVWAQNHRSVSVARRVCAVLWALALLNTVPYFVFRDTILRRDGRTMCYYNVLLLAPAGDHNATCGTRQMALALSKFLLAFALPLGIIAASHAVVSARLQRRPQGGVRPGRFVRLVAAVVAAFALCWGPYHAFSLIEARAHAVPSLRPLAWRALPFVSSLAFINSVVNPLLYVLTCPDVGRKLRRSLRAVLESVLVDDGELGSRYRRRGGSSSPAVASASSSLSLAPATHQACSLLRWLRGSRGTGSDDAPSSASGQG
The assay is described as follows: Inhibition of guinea pig CRTH2 receptor.

In a further assay the target is T8, Thromboxane A2 receptor (Homo sapiens, UniProt P21731).
T8 sequence (P21731 whole entry): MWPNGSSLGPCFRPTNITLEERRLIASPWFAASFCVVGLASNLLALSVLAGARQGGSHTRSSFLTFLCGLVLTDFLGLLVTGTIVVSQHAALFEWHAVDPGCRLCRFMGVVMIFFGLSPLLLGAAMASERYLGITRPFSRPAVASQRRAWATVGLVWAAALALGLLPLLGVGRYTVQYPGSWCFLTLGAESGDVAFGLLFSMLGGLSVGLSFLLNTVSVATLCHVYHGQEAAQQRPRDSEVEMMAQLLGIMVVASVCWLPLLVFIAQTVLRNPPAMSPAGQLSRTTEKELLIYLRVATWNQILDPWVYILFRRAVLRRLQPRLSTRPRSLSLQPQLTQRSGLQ
The assay is described as follows: Inhibition of thromboxane A2 receptor.

Usually IC50 stands for the midpoint of a concentration-inhibition curve. Regarding `CC(c1ccccc1)(c1ccccc1)c1nc(-c2ccc(F)cc2)c(CC(=O)O)s1`, the IC50 in [1] worked out at 85 nM; in [2] it was 7.9 nM. Moreover, the Efficacy in [3] was greater than 80%.

`O=C(O)Cc1sc(N(c2ccccc2)c2ccccc2)nc1-c1ccc(Cl)cc1`: the IC50 came to 72 nM in [1] and 18 nM in assay [2]. Moreover, the Efficacy in [3] was greater than 80%.

`O=C(O)Cc1cnc(N(c2ccc(F)cc2)c2ccc(F)cc2)nc1-c1cccc(F)c1`: the IC50 in [1] was greater than 100000 nM; in assay [2], 1260 nM. The Efficacy in [3] was greater than 80%.

Turning to `COc1ccc(N(c2ccc(OC)cc2)c2ncc(CC(=O)O)c(-c3cccc(F)c3)n2)cc1`, the IC50 is greater than 100000 nM in [1] and 2790 nM in assay [2]. Also, in [3], the Efficacy was greater than 80%.

Consider `CS(=O)(=O)c1ccc(N(c2ccccc2)c2nc(-c3ccc(F)cc3)c(CC(=O)O)s2)cc1`, for which the results for the IC50 in assay [1] and in [2] were 2000 nM and 190 nM, respectively. Besides, the Efficacy in assay [3] was greater than 30%.

As to `O=C(O)Cc1sc(N(c2ccccc2)c2ccccc2)nc1-c1ccc(F)cc1`, the values for the IC50 in assay [1] and in assay [2] were 98 nM and 15 nM, respectively. The Efficacy in assay [3] is greater than 80%.

On to `O=C(O)Cc1sc(N(c2ccccc2)c2ccccc2)nc1-c1cccc(F)c1`, for which the half-maximal inhibitory concentration (IC50) was 79 nM in assay [1] and 4.4 nM in [2]. Moreover, in [3], the Efficacy is greater than 80%.

As to `O=C(O)CCc1sc(C(c2ccc(F)cc2)c2ccc(F)cc2)nc1-c1cccc(F)c1`, the figures for the IC50 in [1] and in [2] were 1000 nM and 75 nM, respectively. In addition, the Efficacy in [3] was greater than 80%.

Turning to `O=C(O)Cc1sc(N(c2ccc(F)cc2)c2ccc(F)cc2)nc1-c1ccc(F)cc1`, the IC50 in assay [1] was found to be 240 nM; in assay [2] it was 23 nM. For the same molecule, the Efficacy in assay [3] was greater than 80%.

With `O=C(O)COc1sc(C(c2ccc(F)cc2)c2ccc(F)cc2)nc1-c1cccc(F)c1`, the IC50 in [1] is 200 nM; in assay [2] it was 83 nM. Further, in assay [3], the Efficacy is greater than 80%.

For the molecule `O=C(O)Cc1sc(N(c2ccccc2)c2cccnc2)nc1-c1ccc(F)cc1`, the IC50 in [1] was 1500 nM; in [2], 43 nM. For the same molecule, in assay [3], the Efficacy is greater than 30%.

Regarding `O=C(O)CCc1cnc(C(c2ccc(F)cc2)c2ccc(F)cc2)nc1-c1cccc(F)c1`, the IC50 in assay [1] is greater than 100000 nM; in assay [2] it was 2070 nM. For the same molecule, the Efficacy in [3] was greater than 80%.

For the molecule `O=C(O)Cc1[nH]c(C(c2ccc(F)cc2)c2ccc(F)cc2)nc1-c1ccc(F)cc1`, the results for the half-inhibitory concentration (IC50) in assay [1] and in assay [2] were greater than 100000 nM and 9140 nM, respectively. For the same molecule, the Efficacy in assay [3] is greater than 80%.

`COc1ccc(N(c2ccc(OC)cc2)c2nc(-c3cccc(F)c3)c(CC(=O)O)s2)cc1`: the IC50 in [1] is 260 nM; in assay [2], 15 nM. In addition, the Efficacy in [3] was greater than 80%.

Turning to `O=C(O)Cc1cnc(C(c2ccc(F)cc2)c2ccc(F)cc2)nc1-c1cccc(F)c1`, the IC50 in assay [4] is 3.4 nM; in assay [5], greater than 100000 nM; in assay [6], 8500 nM; in [1] it was 12 nM; in assay [7], 7.5 nM; in assay [2] it was 1.9 nM. Further, the half-inhibitory concentration (IC50) in assay [8] was determined as 5900 nM; in assay [9], 29 nM; against Thromboxane A2 receptor, 31000 nM. Besides, the Efficacy in [3] was greater than 80%.

Consider `N#Cc1ccc(N(c2ccccc2)c2nc(-c3ccc(F)cc3)c(CC(=O)O)s2)cc1`, for which the half-maximal inhibitory concentration (IC50) in assay [1] came to 460 nM; in assay [2], 84 nM. In [3], the Efficacy was greater than 55%.
